Assay results taken from ChEMBL document CHEMBL3301361, “Experimental in vitro DMPK and physicochemical data on a set of publicly disclosed compounds”.
≈ marks a conversion by molar mass, not a printed value.

Legend:
[1] = physchem; conditions: octan-1-ol/water
[2] = in vitro; conditions: human, hepatocytes
[3] = physchem; conditions: pH 7.4 buffer
[4] = in vitro; conditions: human, plasma
[5] = in vitro; conditions: human
[6] = in vitro; conditions: SD, HW or BN, rat, plasma

SMILES | logD ([1]; pH 7.4, LogD7.4) | hepatocyte CLint [2] [µL/min/1e6 cells] | also measured
CCN(C(=O)c1ccc(-c2ccc(Cl)cc2)o1)c1ccc(N2CCNCC2)cc1 | 3.3 | < 3 | –
CC(C)Oc1cc(-c2cccc3c(=O)cc(N4CCOCC4)oc23)ccc1NC(=O)CN1CCOCC1 | 3 | 87.1 | solubility thermodynamic [3]: 4 µM (≈ 2.03 µg/mL)
Cc1ccc2c(c1)c(Sc1ccc(S(C)(=O)=O)cc1)c(C)n2CC(=O)O | -0.08 | < 3 | fraction unbound at 5 h ([4]; PPB): 0.0081; microsomal CLint ([5]; liver microsomes): < 3 µL/min/mg
O=C(CCCc1ccc2cccnc2n1)NCc1cc(-c2ccc(F)c(C(F)(F)F)c2)no1 | – | 19.9 | fraction unbound at 5 h [6]: 0.0119; fraction unbound at 5 h ([4]; PPB): 0.0009
CC#C[C@]1(O)CC[C@H]2[C@@H]3CCC4=CC(=O)CCC4=C3[C@@H](c3ccc(N(C)C)cc3)C[C@@]21C [MIFEPRISTONE] | – | 26.9 | fraction unbound at 5 h ([4]; PPB): 0.0015; microsomal CLint ([5]; liver microsomes): 79 µL/min/mg; solubility thermodynamic [3]: 1.9 µM (≈ 0.816 µg/mL)
O=C(CN1CCOCC1)Nc1ccc(-c2cccc3c(=O)cc(N4CCOCC4)oc23)cc1O | 2.4 | 18.6 | solubility thermodynamic [3]: 7.2 µM (≈ 3.35 µg/mL)
CC(C)(CO)Nc1nc(SCc2cccc(F)c2F)nc2nc(N)sc12 | 3.37 | 5.88 | –
N#Cc1ccc(C(c2ccc(C#N)cc2)n2cncn2)cc1 [LETROZOLE] | 1.7 | < 3 | fraction unbound at 5 h ([4]; PPB): 0.483
O=S(=O)(Nc1ccc2sc(CO)nc2c1)c1ccc(Br)cc1 | – | 24.6 | fraction unbound at 5 h [6]: 0.0018
CC(C)c1cc(C(=O)N2Cc3ccc(CN4CCN(C)CC4)cc3C2)c(O)cc1O [ONALESPIB] | 2.5 | 23.4 | solubility thermodynamic [3]: 93.3 µM (≈ 38.2 µg/mL)
O=S(=O)(Nc1ccc(C(F)(F)F)cc1)c1ccc2sc(CO)nc2c1 | – | 15.5 | fraction unbound at 5 h ([4]; PPB): 0.0027
C[C@H]1COCCN1c1nc(N2CCOC[C@@H]2C)c2ccc(-c3ccc4nc[nH]c(=O)c4c3)nc2n1 | – | > 150 | –
CC(C)C[C@H](CO)Nc1nc(SCc2ccccc2)nc2nc(N)sc12 | 4.2 | 20.4 | –
CC(C)(C)S(=O)(=O)N[C@H]1CC[C@H](C(=O)Nc2ccc(C(F)(F)F)cn2)CC1 | – | 5.75 | fraction unbound at 5 h ([4]; PPB): 0.0409
COc1cc(N2CCN(C(=O)[C@@H](C)O)CC2)ccc1Nc1ncc(Cl)c(-c2cnc3ccccn23)n1 | – | 12.6 | –
CC(C)C[C@H](CO)Nc1nc(SCc2ccccc2)nc2[nH]c(=O)sc12 | 4.2 | 13.5 | –
O=C1NC(=O)C(=CC=Cc2ccccc2)S1 | – | 10.5 | –
O=C(O)C1(c2ccc(-c3ccc(Cl)c(Cl)c3)c(F)c2)CC1 | – | 38.9 | –
CNC(=O)c1ccccc1Nc1nc(Nc2ccc(N3CCOCC3)cc2OC)ncc1Cl | – | 16.2 | solubility thermodynamic [3]: 0.4 µM (≈ 0.188 µg/mL)
CCC1(C2=NCCN2)Cc2ccccc2O1 (centres undefined) [EFAROXAN] | – | < 3 | fraction unbound at 5 h [6]: 0.76
CC[C@H](CO)Nc1nc(SCc2cccc(F)c2F)nc2nc(N)sc12 | – | 5.16 | fraction unbound at 5 h ([4]; PPB): 0.0149; microsomal CLint ([5]; liver microsomes): 62 µL/min/mg
Cc1c(Oc2ccc(Cl)cc2)c2c(NS(C)(=O)=O)cccc2n1CC(=O)O | -0.98 | < 3 | fraction unbound at 5 h ([4]; PPB): 0.0374; microsomal CLint ([5]; microsomes): < 3 µL/min/mg
CCCN1CCCC[C@H]1C(=O)Nc1c(C)cccc1C [ROPIVACAINE] | – | 15.5 | fraction unbound at 5 h [6]: 0.511
Cc1ccc(-c2cccc(-c3nn[nH]n3)c2)cc1 | – | 52.5 | –
CCOc1cc(-c2cccc3c(=O)cc(N4CCOCC4)oc23)ccc1NC(=O)CN1CCOCC1 | 2.8 | 51.3 | solubility thermodynamic [3]: 1.4 µM (≈ 0.691 µg/mL)

SMILES | logD ([1]; pH 7.4, LogD7.4) | hepatocyte CLint [2] [µL/min/1e6 cells] | also measured
COc1ccccc1-c1csc(-n2ncc(C#N)c2N)n1 | – | 55 | fraction unbound at 5 h [6]: 0.529; fraction unbound at 5 h ([4]; PPB): 0.591
CC(C)COc1cc(-c2cccc3c(=O)cc(N4CCOCC4)oc23)ccc1NC(=O)CN1CCOCC1 | 3.8 | > 150 | solubility thermodynamic [3]: 3.5 µM (≈ 1.83 µg/mL)
C=CCOc1cc(-c2cccc3c(=O)cc(N4CCOCC4)oc23)ccc1NC(=O)CN1CCOCC1 | 3 | 83.2 | solubility thermodynamic [3]: 4.7 µM (≈ 2.38 µg/mL)
COc1ccc(/C=C2\NC(=O)NC2=O)cc1 | – | 39.8 | –
COc1cc(C2CCN(C(C)=O)CC2)ccc1Nc1ncc(Cl)c(-c2cnc3ccccn23)n1 | – | 24 | solubility thermodynamic [3]: 2.2 µM (≈ 1.05 µg/mL)
Cc1ccc(-n2c(C)cc(/C=C3\SC(=O)NC3=O)c2C)cc1 | – | 17.8 | fraction unbound at 5 h ([4]; PPB): 0.0016
C[C@]12CC[C@H](O)CC1=CCC1C2CC[C@]2(C)C(n3cnc4ccccc43)=CCC12 (some centres undefined) | – | 34.7 | –
NS(=O)(=O)c1ccc(-n2nc(C(F)(F)F)cc2-c2ccc(C(F)(F)F)cc2)cc1 | – | 18.2 | –
Nc1nc(-c2ccc(Cl)c(Cl)c2)c(-c2ccncc2)s1 | – | 19.1 | fraction unbound at 5 h ([4]; PPB): 0.0074
O=c1[nH]c2c(O)ccc([C@@H](O)CNCCc3ccc(CNCCc4ccccn4)cc3)c2s1 | -0.25 | < 3 | fraction unbound at 5 h [6]: 0.483
CCC1=C(C)CN(C(=O)NCCc2ccc(S(=O)(=O)NC(=O)N[C@H]3CC[C@H](C)CC3)cc2)C1=O [GLIMEPIRIDE] | 1.73 | 23.2 | –
NC1(c2ccc(-c3c(-c4ccccc4)ccc4ccnn34)cc2)CCC1 | – | 10.2 | –
NC(=O)c1ccn2c(-c3ccccc3)c(-c3ccc(C4(N)CCC4)cc3)nc2c1 | – | 3.72 | solubility thermodynamic [3]: 112 µM (≈ 42.9 µg/mL)
Nc1ncc(-c2ccc(S(=O)(=O)N3CCCC3)cc2)nc1C(=O)Nc1cccnc1 | – | < 3 | –
Cn1cnc2c(-c3ccc(C4(N)CCC4)cc3)c(-c3ccccc3)ccc21 | – | 3.31 | –
CS(=O)(=O)C1(c2cc(N3CCOCC3)nc(-c3cccc4[nH]ncc34)n2)CC1 | – | < 3 | –
O=C1Nc2ccc(Cl)cc2[C@@](C#CC2CC2)(C(F)(F)F)O1 [EFAVIRENZ] | – | 8.51 | –
O=C(NCc1ccc(OC(F)(F)F)cc1)C1c2ccccc2C(=O)N1CC1CC(F)(F)C1 (centres undefined) | 3.9 | 10 | –
COCCOc1nc(N)c2[nH]c(=O)n(Cc3cccc(CC(=O)OC)c3)c2n1 | 1.86 | 125 | solubility thermodynamic [3]: 21.9 µM (≈ 8.48 µg/mL)
CNC(=O)c1ccc(C)c(-n2c(C)cc(OCc3ccc(F)cc3F)c(Br)c2=O)c1 [PH-797804] | 2.8 | < 3 | fraction unbound at 5 h [6]: 0.0183; solubility thermodynamic [3]: 21.4 µM (≈ 10.2 µg/mL)
Nc1c(-c2ccccc2)nc(Cl)nc1-c1ccccc1 | – | 46.8 | –
O=C1CN=C(c2ccccc2Cl)c2cc([N+](=O)[O-])ccc2N1 [CLONAZEPAM] | – | 3.72 | logD ([1]; pH 7.4): 3.72; solubility thermodynamic [3]: 240 µM (≈ 75.7 µg/mL)
COc1cc(N2CC3CNCC(C2)O3)ccc1Nc1ncc(Cl)c(-c2cnc3ccccn23)n1 | – | 13.8 | solubility thermodynamic [3]: 25.1 µM (≈ 12 µg/mL)
CC1CNC(Nc2c(Cl)cccc2Cl)=N1 (centres undefined) | – | < 3 | fraction unbound at 5 h [6]: 0.64
CCOc1ccc2nc3ccc(=O)cc-3oc2c1 [ETHOXYRESORUFIN] | – | > 150 | –

SMILES | logD ([1]; pH 7.4, LogD7.4) | hepatocyte CLint [2] [µL/min/1e6 cells] | also measured
N=C(N)N1CCc2ccccc2C1 [DEBRISOQUIN] | -1.01 | 3.98 | –
COc1ccccc1SC[C@@H](C)CN[C@@H]1COc2ccccc2SC1 | – | 51.3 | –
Cn1cc(C2=C(c3cn(C4CCN(Cc5ccccn5)CC4)c4ccccc34)C(=O)NC2=O)c2ccccc21 [ENZASTAURIN] | – | 6 | fraction unbound at 5 h [4]: 0.0017; solubility thermodynamic [3]: 0.8 µM (≈ 0.412 µg/mL)
N#Cc1cccc(-c2cccc(C(=O)O)c2)c1 | 0.3 | 8.13 | –
Cc1cc(C)nc(Nc2cccc(C(F)(F)F)c2)n1 | – | 36.3 | –
O=C(O)c1ccc(-n2nc(C(F)(F)F)cc2-c2ccc(C(F)(F)F)cc2)cc1 | – | 9.33 | –
O=C(CN1CCOCC1)Nc1ccc(-c2cccc3c(=O)cc(N4CCOCC4)oc23)cc1OCCN1CCCC1 | – | 5.5 | –
Nc1ccc2c(c1)Cc1cc(N)ccc1-2 | – | 61.7 | –
COc1cc(C(CO)CO)ccc1Nc1ncc(Cl)c(-c2cnc3ccccn23)n1 | 3.1 | 19.9 | solubility thermodynamic [3]: 6.8 µM (≈ 2.9 µg/mL)
C[C@]12CC[C@H](O)CC1=CC[C@@H]1[C@@H]2CC[C@]2(C)C(c3cccnc3)=CC[C@@H]12 [ABIRATERONE] | – | 55 | –
O=C(O)CC[C@@H](Cc1ccc(OCc2ccccc2)cc1)NC(=O)CCCCCCc1ccccc1 | – | 17.4 | –
Cc1ccc(-c2cc(C(F)(F)F)nn2-c2ccc(S(C)(=O)=O)cc2)cc1 | – | 17.4 | –
Cc1c(Cl)cccc1S(=O)(=O)N1CCC[C@H](C(=O)NC2CCCCC2)C1 | – | 18.6 | –
N=c1c(S(=O)(=O)c2ccc(Cl)cc2)cc2c(=O)n3ccccc3nc2n1C1CCCC1 | – | 35.5 | fraction unbound at 5 h ([4]; PPB): 0.5
NC1(c2ccc(-c3ncc4cnccc4c3-c3ccccc3)cc2)CCC1 | – | > 150 | –
Cc1cc(CC(=O)O)n(C)c1C(=O)c1ccc(Cl)cc1 [ZOMEPIRAC] | – | < 3 | –
NC1(c2ccc(-c3ncc4cccn4c3-c3ccccc3)cc2)CCC1 | – | < 3 | –
Clc1ccc(Cn2c(-c3nn[nH]n3)cc3ccccc32)cc1Cl | – | 12.9 | –
COc1ncccc1-c1cccc2c(N)c3c(nc12)CN(C1CCC1)C3=O | – | 4.88 | –
O=c1ccc2ccc(O)cc2o1 [UMBELLIFERONE] | – | 123 | –
CNc1ncnc2c(CNc3cc(NC(=O)c4ccc5c(c4)OCCO5)ccc3C)cccc12 | 4 | 41.7 | solubility thermodynamic [3]: 9.3 µM (≈ 4.24 µg/mL)
CC(c1cc2ccccc2s1)N(O)C(N)=O (centres undefined) [ZILEUTON] | 2.05 | 7.76 | solubility thermodynamic [3]: 436 µM (≈ 103 µg/mL)
C[C@H]1COCCN1c1nc(N2CCOC[C@@H]2C)c2ccc(-c3cccc(C(=O)NCCO)c3)nc2n1 | 2.49 | 10 | –
C[C@@H]1CN(C(=O)N[C@H](Cc2ccc(F)cc2)C(=O)N2CCC(C(=O)NC(C)(C)C)(C3CCCCC3)CC2)C[C@H](C)N1 | – | 10.7 | fraction unbound at 5 h [6]: 0.0872
Cc1ccc(-c2cc(C(F)(F)F)nn2-c2ccc([S+](C)[O-])cc2)cc1 (centres undefined) | – | 14.8 | –
